Tests used:
Artemia = experiment: Toxicity in brine shrimp; format: organism-based; conditions: in vivo
[1] = test system: Agrobacterium tumefaciens; experiment: Antitumor activity against Agrobacterium tumefaciens-induced crown gall tumors in potato tubers by potato disk assay; format: functional

For `CC(=O)O.CC1=CCCC2[C@](C)(Cc3cc(O)ccc3O)[C@@H](C)CC[C@]12C` (stereo partly specified) [AVAROL MONOACETATE], the LC50 (Artemia) was 0.09 ppm and the “inhibition (INH)” value [1] was 59%.

In the case of `CC1=CCC[C@H]2[C@](C)(Cc3cc(O)ccc3O)[C@@H](C)CC[C@]12C` [AVAROL], the LC50 (Artemia) is reported as 0.18 ppm and the “inhibition (INH)” value [1] is reported as 64%.

In the case of `CC1=CCC[C@H]2[C@](C)(CC3=CC(=O)C=CC3=O)[C@@H](C)CC[C@]12C` [AVARONE], the LC50 (Artemia) is reported as 0.14 ppm and the “inhibition (INH)” value [1] is reported as 63%.
